Data taken from patent US8604280B2, “Glyphosate tolerant perennial ryegrass named ‘replay’” (J.R. Simplot Company, priority 2009, dated 2013).

Tested on: perennial ryegrass 96-3047
Experiment: Glyphosate applied at termination of the Maryland turf trial, plot survival
Type: in vivo, Lolium perenne L.
Conditions: glyphosate at 2-quarts per acre; plot 96-3047, Maryland trial, 1999; only plot in the trial not killed
From the text: ‘Replay’ was developed from a greenhouse cross made in 1992 of perennial ryegrass ‘APM’ (registered, Reg. No. CV-185, PI 565096) pollinated by perennial ryegrass ‘Birdie II’ (registered, Reg. No. 133, PI 537452) in Post Falls, Id. Progeny of this cross was planted in a 1992 spaced-plant nursery in Post Falls, Id., and designated as 92-0226. An open-pollinated selection from this population, designated as 93-0736, was harvested and planted in company turf trials in Post Falls, Id., and Poolesville, Md., in 1993. In 1995, plugs of 93-0736 were pulled from the Maryland plot based on the desirable characteristics of dark green color and turf performance, and then planted in a spaced-plant nursery in Post Falls, Id. In 1996, the perennial ryegrass 96-3047 was selected from this population and planted in company turf trials in both Post Falls, Id., and Poolesville, Md.
In 1999, during the termination of the Maryland trial, 96-3047 was the only plot in the trial that was not killed when glyphosate at the rate of 2-quarts per acre was applied. Survival in the plot was estimated at 30% and plugs were pulled, coded as 99-0089, and 200 plants of 99-0089 were planted in an isolation block in the 1999 Post Falls, Id. nursery.

O=C(O)CNCP(=O)(O)O [glyphosate, N-(phosphonomethyl) glycine]
Survival in the plot: ~30%
